Laboratory results from patent publication US6716411B2, “Method for finding nucleotide synthesis inhibitors having fewer side effects” (Aventis Pharma Deustschland GmbH, priority 1999, dated 2004).
Values joined by “and” are separate entries in the source; they are usually repeats but may differ in a detail not shown here. Equal values may be shown once. Read-outs that look alike come from different tables or passages of the source. Marks after values point to notes of the source that are not given here.

Columns and labels:
[1] = tested on: adjuvant-induced arthritis; test: Adjuvant-induced arthritis model, dose-response relationship (Example 1); type: in vivo; conditions: for Increase in body weight / Reduction in arthritis score / Reduction in paw swelling / Surviving animals: day 21
Excerpt: The dose-response relationship of N-(4-trifluoromethylphenyl)-2-cyano-3-hyroxycrotonamide, hereafter referred to as compound 1, was drawn up in the adjuvant-induced arthritis model (method of Pearson C. M. and Wood F. D.; Arth. Rheum. 2: 44 (1959), and Taurog J. D., Argentieri D. C. et al., Meth. Enzymol. 162: 339 (1988)). The swelling of the paws, the formation of generalized symptoms of arthritis, know as the score index, the increase in the body weight during the experiment, and the survival of the animals were determined.
Compound 1 was administered orally from the start of the experiment onwards up to the end on day 21 in a 1% strength carboxymethlcellulose solution, (CMC). The control groups received corresponding amounts of 1% CMC without the active compound.
Six male Lewis rats having a body weight of approximately 210 g were employed in each experimental group.
Negative numbers indicate the worsening of the respective measurement parameter.
In the adjuvant-induced arthritis model in the rat, autoimmune reactions are observed which correspond to the autoimmune diseases of the rheumatic type in humans.

[2] = Tolerability of constant (mini-infusion pump) versus pulse-like (oral) blood levels (Example 5); type: in vivo, rat; conditions: male, Lewis, rat, plasma, subcutaneous, read-out: Compound 1 blood plasma level (day 27)
Protocol: (§1) In order to attain constant blood levels, a mini-infusion pump was subcutaneously implanted into experimental animals. The mini-infusion pumps contained 2 ml of a 15% strength ethanolic solution of compound 1, which was continuously released over 28 days. Doses of 2.5, 5, 10 and 25 mg/kg/day were employed. For comparison, animals which received the same daily doses of the compound 1, but administered orally, were implanted with mini-infusion pumps; these, however, were filled with only the vehicle (15% ethanol in water). A 1% strength CMC was additionally administered orally to animals which received the compound 1 via mini-infusion pumps. The survival of the animals was taken as a course parameter. Additionally, blood was taken on day 5 and day 27 in order to determine the blood levels of compound 1. Blood was taken from animals 4 hours after oral administration of compound 1. The group was comprised of 6 male Lewis rats having a body weight of approximately 210 g. Corresponding to the preceding experiments, adjuvant arthritis was induced in the animals on day 5.
(§2) For the attainment of constant blood levels of compound 1, the animals were implanted subcutaneously with a mini-infusion pump which supplied compound 1 to the animals continuously for 28 days. By means of this pump, constant blood levels of compound 1 were attained. Thus long half-lives of compound 1, such as are observed in humans, were simulated.
(§3) For the comparison group, animals were treated with the identical daily dose of compound 1, but received the substance orally rather than by mini-infusion pump.
(§4) In this experiment, the tolerability of the compound 1 with a short half-life (compound 1 orally administered) was compared with the tolerability of the compound 1 with a long half-life (compound 1 by pump with a constant infinite half-life). The doses employed were 2.5 mg/kg/day, 5 mg/kg/day, 10 mg/kg/day and 25 mg/kg/day. The number of animals surviving the treatment was used as a measure of the tolerability. The tolerability was moreover compared with respect to the observed blood levels.

[3] = tested on: Lewis rats; test: as above; type: in vivo, rat
Protocol: as §1, §2, §3, §4

C/C(O)=C(\C#N)C(=O)Nc1ccc(C(F)(F)F)cc1 [compound 1, N-(4-trifluoromethylphenyl)-2-cyano-3-hydroxycrotonamide]
therapeutic action ([1]; 1 mg/kg/day): an action could no longer be determined
Increase in body weight ([1]; 1 mg/kg/day orally): 10%
Reduction in arthritis score ([1]; 1 mg/kg/day orally): −11%
Reduction in paw swelling ([1]; 1 mg/kg/day orally): −9%
Surviving animals ([1]; 1 mg/kg/day orally): 100%
Increase in body weight ([1]; 2.5 mg/kg/day orally): 20%
Reduction in arthritis score ([1]; 2.5 mg/kg/day orally): 70%
Reduction in paw swelling ([1]; 2.5 mg/kg/day orally): 78%
Surviving animals ([1]; 2.5 mg/kg/day orally): 100%
Increase in body weight ([1]; 5 mg/kg/day orally): 37%
Reduction in arthritis score ([1]; 5 mg/kg/day orally): 83%
Reduction in paw swelling ([1]; 5 mg/kg/day orally): 96%
Increase in body weight ([1]; 7.5 mg/kg/day orally): 25%
Reduction in arthritis score ([1]; 7.5 mg/kg/day orally): 87%
Reduction in paw swelling ([1]; 7.5 mg/kg/day orally): 105%
Increase in body weight ([1]; 10 mg/kg/day orally): 11%
Reduction in arthritis score ([1]; 10 mg/kg/day orally): 84%
Reduction in paw swelling ([1]; 10 mg/kg/day orally): 96%
Increase in body weight ([1]; 15 mg/kg/day orally): 8%
Reduction in arthritis score ([1]; 15 mg/kg/day orally): 91%
Reduction in paw swelling ([1]; 15 mg/kg/day orally): 106%
Increase in body weight ([1]; 25 mg/kg/day orally): −2%
Reduction in arthritis score ([1]; 25 mg/kg/day orally): 96%
Reduction in paw swelling ([1]; 25 mg/kg/day orally): 114%
lowest efficacious dose ([1]; orally once daily, adjuvant-induced arthritis, rat): 2.5 mg/kg/day
concentration at 27 day ([2]; 2.5 mg/kg/day mini-infusion): 2340 ng/mL
concentration at 27 day ([2]; 5 mg/kg/day mini-infusion): 4180 ng/mL
concentration at 27 day ([2]; 10 mg/kg/day mini-infusion): 6720 ng/mL
Body weight increase ([3]; 2.5 mg/kg/day mini-infusion): +22%
Compound 1 blood plasma level (day 5) ([3]; 2.5 mg/kg/day mini-infusion): 2.05 μg/ml ±
Compound 1 blood plasma level (day 27) ([3]; 2.5 mg/kg/day mini-infusion): 2.34 μg/ml ±
Surviving animals ([3]; 2.5 mg/kg/day mini-infusion): 100%
Body weight increase ([3]; 2.5 mg/kg/day p.o.): +29%
Surviving animals ([3]; 2.5 mg/kg/day p.o.): 100%
Body weight increase ([3]; 5 mg/kg/day mini-infusion): +26%
Compound 1 blood plasma level (day 5) ([3]; 5 mg/kg/day mini-infusion): 3.57 μg/ml ±
Compound 1 blood plasma level (day 27) ([3]; 5 mg/kg/day mini-infusion): 4.18 μg/ml ±
Surviving animals ([3]; 5 mg/kg/day mini-infusion): 100%
Body weight increase ([3]; 5 mg/kg/day p.o.): +25%
Surviving animals ([3]; 5 mg/kg/day p.o.): 100%
Compound 1 blood plasma level (day 5) ([3]; 5 mg/kg/day p.o., 4 hours after oral administration): 14.31 µg/µg/mL
Body weight increase ([3]; 10 mg/kg/day mini-infusion): +29%
Compound 1 blood plasma level (day 5) ([3]; 10 mg/kg/day mini-infusion): 4.55 μg/ml ±
Compound 1 blood plasma level (day 27) ([3]; 10 mg/kg/day mini-infusion): 6.72 μg/ml ±
Surviving animals ([3]; 10 mg/kg/day mini-infusion): 100%
Body weight increase ([3]; 10 mg/kg/day p.o.): +27%
Surviving animals ([3]; 10 mg/kg/day p.o.): 100%
Compound 1 blood plasma level (day 27) ([3]; 10 mg/kg/day p.o., 4 hours after oral administration): 34.35 μg/ml and 34.35 μg/ μg/ml
Surviving animals ([3]; 25 mg/kg/day mini-infusion): 17%
blood plasma levels, extrapolated from the values at lower doses ([3]; 25 mg/kg/day mini-infusion pump): ≤ 15000 ng/mL
Body weight increase ([3]; 25 mg/kg/day mini-infusion, determined in one surviving animal only): +13%*
survival ([3]; 25 mg/kg/day orally administered): all animals
Body weight increase ([3]; 25 mg/kg/day p.o.): −2%
Surviving animals ([3]; 25 mg/kg/day p.o.): 100%
